From patent US20210369677A1, “SMALL MOLECULE ACTIVATORS OF POLYCYSTIN-2 (PKD2) AND USES THEREOF” (Northwestern University, priority 2020, published 2021)
Entries after “also recorded” stand apart in the source; their conditions may differ. Each block holds one compound with its values, some of them ahead of it.

Columns and labels:
[1] = target: T1, human polycystin-2 CTD EF hand (I704-P797) (Homo sapiens, UniProt Q13563); test: Isothermal titration calorimetry of divalent ions into the CTD of polycystin-2; assay type: binding
T1 construct: The C-terminal fragment of the human polycystin-2 (I704-P797) was cloned into the PET19b vector; 10xHis (N); made in house; host or cells: E. coli BL21 (DE3)
T1 sequence (Q13563 704-797): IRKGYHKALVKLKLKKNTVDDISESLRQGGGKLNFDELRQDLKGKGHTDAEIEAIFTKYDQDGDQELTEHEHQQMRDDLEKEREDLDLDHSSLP
Procedure: CTD protein expression, purification, and isothermal titration calorimetry. The C-terminal fragment of the human polycystin-2 (I704-P797) was cloned into the PET19b vector and transformed into BL21 (DE3) competent cells (New England Biolabs) for bacterial expression. The translated peptide has a 10×His tag on its N-terminus. The alanine mutants of the individual calcium-coordinating residues were created and transformed as well. Cells were grown in 2XYT broth in a 37° C. shaking incubator until OD600 reaches ˜0.6, and were induced by 0.4 mM isopropyl 1-thio-β-D-galactopyranoside and grown for another 4 hours. Cells were harvested and resuspended in Buffer A (500 mM NaCl, 20 mM Tris/HCl, pH 7.4), 5% glycerol, 0.25 mM EDTA pH 8.0, 1 mM PMSF (RPI), 25 μg/ml of lysozyme and DNase I (GoldBio). The suspension was then lysed by sonication and clarified by centrifugation (30,000×g for 0.5 h). Filtered supernatant was loaded into a HisPur cobalt Superflow agarose column (ThermoScientific). The column was washed with 10 column volume (CV) of buffer A, 5 CV of buffer A+5 mM imidazole, and finally eluted with 3 CV of buffer A+100 mM imidazole. The eluate was desalted by dialysis in 150 mM NaCl, 20 mM Tris/HCl, 20 mM imidazole, pH 7.4. SDS-PAGE gel confirmed the expression, solubility, and purity of the peptide. All of our solutions were formulated with ultrapure water (Milli-Q® IQ 7005 water purification system), that has less than 0.29 ng/L calcium ions present. The binding affinity is recorded based on the heat difference between the sample cell and reference cell measured by MicroCal iTC200. […] The cells were insulated by an adiabatic jacket held at 25° C. The heat of dilution of Ca^2+ was not subtracted from data sets, as the signal was prohibitively small for several of the mutant channels. The exothermic energy of the bimolecular interaction between Ca^2+ and peptide during each injection was analyzed by integrating the change in heat to generate the binding isotherm. […]

polycystin-2 = target: T2, polycystin-2 (Homo sapiens, UniProt Q13563); assay type: cell-based; conditions: 10 μM, voltage ramps
T2 construct: expressed in transfected cells
T2 sequence (Q13563 1-968): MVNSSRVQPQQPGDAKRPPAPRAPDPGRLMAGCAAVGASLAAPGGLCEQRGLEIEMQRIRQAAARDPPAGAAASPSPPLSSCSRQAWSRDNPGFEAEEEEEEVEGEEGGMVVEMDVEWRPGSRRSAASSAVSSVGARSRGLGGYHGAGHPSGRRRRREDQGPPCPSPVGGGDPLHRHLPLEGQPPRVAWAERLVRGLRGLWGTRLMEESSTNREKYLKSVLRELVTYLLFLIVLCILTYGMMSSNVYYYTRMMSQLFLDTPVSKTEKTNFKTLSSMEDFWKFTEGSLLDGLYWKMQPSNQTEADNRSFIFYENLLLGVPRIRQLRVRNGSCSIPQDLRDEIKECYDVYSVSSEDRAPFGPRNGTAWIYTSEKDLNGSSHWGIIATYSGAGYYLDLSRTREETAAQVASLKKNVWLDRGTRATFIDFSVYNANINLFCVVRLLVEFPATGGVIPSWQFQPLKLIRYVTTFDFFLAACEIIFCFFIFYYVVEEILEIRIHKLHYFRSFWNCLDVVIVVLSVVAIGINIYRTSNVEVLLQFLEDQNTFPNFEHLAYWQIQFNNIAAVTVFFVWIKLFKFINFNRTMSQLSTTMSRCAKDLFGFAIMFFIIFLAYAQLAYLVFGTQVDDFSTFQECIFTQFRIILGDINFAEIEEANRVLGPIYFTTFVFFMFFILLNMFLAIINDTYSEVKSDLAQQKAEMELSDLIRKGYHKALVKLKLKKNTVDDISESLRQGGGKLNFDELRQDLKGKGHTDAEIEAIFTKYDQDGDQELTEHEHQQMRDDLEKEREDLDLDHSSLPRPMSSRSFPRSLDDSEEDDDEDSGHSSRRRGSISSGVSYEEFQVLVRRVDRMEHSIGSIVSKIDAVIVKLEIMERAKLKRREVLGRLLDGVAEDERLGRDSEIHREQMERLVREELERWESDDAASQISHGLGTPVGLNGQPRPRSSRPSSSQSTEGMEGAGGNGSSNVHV
Description: Generation of HEK PKD2^Null cells line and the stable expression PKD2 variants. To generate the HEK PKD2^Null cell lines, we used a CRISPR/Cas9 gene editing kit available from Addgene (kit 1000000055). HEK 293 cells were electro-transfected with sgRNAs (caccg[…] and aaac[…]c) with the All-in-one Cas9 plasmid. […] Cells generated from single cell clones were selected after 4 weeks of expansion in a 96-wells plate. […] To generate the WT and variant PKD2 GFP or mCherry C-terminally tagged variant cell lines, the hPKD gene was subcloned into lentiviral pLVX-mcherry-N1 (Clontech) or pLVX-GFP-N1 (Clontech) vector using the Gibson assembly method. A linker encoding for six glycine residues was added between the PKD2 gene and the C-terminal tags, and missense variants were generated using standard, site-directed mutagenesis. The third-generation lentiviral packaging plasmids used for stable expression contained: pMDLg/pRRE (Addgene), […] pRSV-Rev (Addgene), and envelope expressing plasmid pMD2.G (Addgene). LentiX-293T cells (Takara) were transfected with polyethylineimine (Polysciences) at a 4:1:1:1 ratio of the transgene and viral packaging constructs. Supernatants were collected 48 and 72 hours post transfection and filtered through a 0.45 μm syringe filter. Lentiviral supernatant was concentrated 100 times using 1 volume of PEG-it (System Biosciences) virus precipitation solution and 4 volume of lentivirus-containing supernatant. The PEG-it and supernatant mixture were kept at 4 degrees for 24 hours and centrifuged at 1500 rpm for 30 minutes. The pellet containing lentivirus was resuspended with 1/100th volume of PBS of the original supernatant volume. HEK cells were infected with the lentivirus supernatant; PKD2-GFP or PKD2-mCherry expression was selected using culture media containing puromycin (2 μg/ml) for 30 to 90 days. Cells were then fluorescence-activated cell sorted (BD FacsMelody) at 5000 to 10,000 counts per minute to enrich for the transgene expression. Stable cell lines were cultured in Dulbecco's modified essential medium (DMEM) supplemented with 10% fetal bovine serum (FBS) and 100 units/ml penicillin, 100 units/ml streptomycin and 1 μg/ml puromycin selection antibiotic.
(§1) Electrophysiology. Ciliary ion currents were recorded using borosilicate glass electrodes polished to resistances of 14-22 MΩ using the cilium patch method previously described^32. Whole cell electrodes used to measure poly cystin-2L1 currents were fire polished to 1.5-4 MΩ resistances. Unless otherwise stated, whole cilia ionic currents were recorded in symmetrical [Na^+]. The pipette standard internal solution contained (in mM): 90 NaMES, 10 NaCl, 10 HEPES, 10 Na4-BAPTA (Glycine, N, N′-[1,2-ethanediylbis(oxy-2,1-phenylene)]bis[N-(carboxymethyl)]-,tetrasodium); pH was adjusted to 7.3 using NaOH. Standard bath solution contained 140 NaCl, 10 HEPES, 1.8 CaCl2); pH 7.4. All solutions were osmotically balanced to 295 (±6) mOsm with mannitol. Extracellular solutions containing TCEP and GSH were used within six hours of formulation. Data were collected using an Axopatch 200B patch clamp amplifier, Digidata 1440A, and pClamp 10 software. Whole-cilium and excised patch currents were digitized at 25 kHz and low-pass filtered at 10 kHz. In the whole cilium configuration, the holding potential was −60 mV and then depolarized using a 400 ms voltage ramp from −100 mV to 100 mV. The whole cell recordings of polycystin-2L1 currents were either activated by the same ramp protocol or by 100 ms depolarizations to 100 mV from a −100 mV holding potential.

polycystin-2L1 = assay type: cell-based; conditions: 10 μM, plasma membrane of HEK cells
Procedure: as §1, with “potential. External conditions were controlled using a Warner Perfusion Fast-Step (SF-77B) system in which the patched cilia and electrode were held in the perfusate stream. Data were analyzed by Igor Pro 7.00 (Wavemetrics, Lake Oswego, Oreg.). The polycystin-2 open probability and the polycystin-2L1 tail current-voltage relationships were fit to a Boltzmann function, f(x)=1/(1+exp[V−V1/2]/k) to estimate voltage of half-maximal activation of current (V1/2).” for “potential.”

PKD2 [2] = target: T3, PKD2 (Homo sapiens, UniProt Q13563); test: PKD2 conductance assay; assay type: cell-based
T3 sequence (Q13563 1-968): T2 sequence (Q13563 1-968)
Description: FIG. 35. Conductance of PKD2 in the presence of test compounds CAS Number 57265-65-3 (calmidazolium (CMZ)), CAS Number 617-27-0 (W-13), and CAS Number 448895-37-2 (NS1643)
We also tested the additional compound CAS Number 57265-65-3 (calmidazolium (CMZ)), the compound CAS Number 617-27-0 (W-13), and NS1643 in a PKD2 conductance assay.

PKD2 [3] = target: T3, PKD2; test: Three stage testing strategy for PKD2 activators; assay type: cell-based; conditions: three screening stages
Description: (§2) FIG. 31. […] Top, the screening of each stage. […] Bottom, cilia Ca^2+ responses from cells with PKD2 present and knocked out using CRISPR=Cas9 (N=17 cells each). D, E) Stage 3 (Cilia Electrophysiology): image of a patched cilia from collecting ducts and corresponding PKD2-dependent current activated by NS1643.
The polycystin pharmacophore remains outstanding because these channels localize to the primary cilium—an antenna-like organelle that requires innovative tools to study. To address this knowledge gap, our laboratory has established a series of cilia-specific channel activity reporters (voltage and calcium reporters) and model systems (poly cystin-dependent yeast growth) which will be used in a three-stage drug screen to characterize the pharmacology of polycystins. We screened a commercially available chemical library containing 384 compounds for activity against wild type polycystins, and identified three channel activators. […]
Our screening strategy included three stages. […] In Stage 2, we measured PKD2 activation by the test compounds using increased ciliary Ca2+ fluorescence and membrane potential from human kidney collecting duct cells in which PKD2 had been knocked out by CRISPR-Cas9. In Stage 3, we assessed activation of polystin-2 dependent currents by the test compounds via imaging of patched cilia from collecting ducts and measuring change in current versus voltage. […]

PKD2 [4] = target: T3, PKD2; test: Cilia Ca2+ fluorescence (smo-GCaMP3), Stage 2; assay type: cell-based; set-up: cilia Ca^2+ responses from cells with PKD2 present and knocked out using CRISPR=Cas9; endogenous in cells; host or cells: human kidney collecting duct cells expressing the smo-GCaMP3 cilia reporter; conditions: smo-GCaMP3, human kidney collecting duct cells; read-out: EC50, increased ciliary Ca2+ fluorescence
Description: as §2
(§3) Our screening strategy included three stages. (See FIG. 31). In Stage 1 of our screening assay, we utilized cyst cells in a P. pastoris (strain YS634) PKD2 Ca^2+-dependent yeast growth assay. P. pastoris growth is dependent on induction and stimulation of PKD2 ion transport by test compounds including NS1643, calmidazolium, and W-13. In Stage 2, we measured PKD2 activation by the test compounds using increased ciliary Ca2+ fluorescence and membrane potential from human kidney collecting duct cells in which PKD2 had been knocked out by CRISPR-Cas9. In Stage 3, we assessed activation of polystin-2 dependent currents by the test compounds via imaging of patched cilia from collecting ducts and measuring change in current versus voltage. […] (See FIG. 32).

PKD2 [5] = target: T3, PKD2; test: Cilia electrophysiology of patched cilia from collecting ducts (Stage 3); assay type: cell-based
Description: as §2, §3

PKD2 [6] = target: T3, PKD2; test: P. pastoris PKD2 Ca2+-dependent yeast growth assay (Stage 1); assay type: cell-based; conditions: P. pastoris strain Y5634; read-out: EC50, yeast growth dependent on stimulation of PKD2 cation transport
Description: as §2, §3

SMILES: [Mg+2] [Mg^2+]
Affinity of other divalent ions for polycystin-2 EF hand [1]: did not have affinity

SMILES: [La] [lanthanum]
Block of ciliary WT polycystin-2 currents by trivalent ions (polycystin-2): blocked | Block of polycystin-2L1 currents by trivalent ions (polycystin-2L1): blocked

SMILES: [Zn+2] [Zn^2+]
Affinity of other divalent ions for polycystin-2 EF hand [1]: did not have affinity

More lines, main results first:

PKD2 conductance (PKD2 [2]): increased PKD2 conductance
SMILES: NCCCCCCNS(=O)(=O)c1cccc2c(Cl)cccc12 [W-13, N-(6-Aminohexyl)-5-chloro-1-naphthalenesulfonamide]

EC50 (PKD2 [4]): 2300 nM | PKD2-dependent current (PKD2 [5]): activated | PKD2 conductance (PKD2 [2]): increased PKD2 conductance | EC50 (PKD2 [6]): 1100 nM
SMILES: O=C(Nc1cc(C(F)(F)F)ccc1O)Nc1cc(C(F)(F)F)ccc1O [NS1643, 1,3-bis[2-hydroxy-5-(trifluoromethyl)phenyl]urea]
Identification as PKD2 activator (PKD2 [3]): identified as an activator of PKD2 activity; also recorded: exemplary PKD2 activator
